Data as given in ChEMBL document CHEMBL1131081, “Beta-amino-thiols inhibit the zinc metallopeptidase activity of tetanus toxin light chain” (J Med Chem, 1998).

Assay: Binding affinity against S1 subsite of the Tetanus neurotoxin (TeNt)
Parameters: species or system Clostridium tetani

| SMILES | Ki [µM] |
| --- | --- |
| NC(CS)c1cccc(S(N)(=O)=O)c1 (stereo unspecified) | 35 |
| NC(CS)CCS(N)(=O)=O (stereo unspecified) | 100 |
| CN(C)C(=O)c1cccc(C(N)CS)c1 (stereo unspecified) | 250 |
| NC(=O)c1cccc(C(N)CS)c1 (stereo unspecified) | 125 |
| NCC(CS)CCS(=O)(=O)O (stereo unspecified) | 500 |
| NC(CS)c1cccc(S(=O)(=O)O)c1 (stereo unspecified) | 40 |
